Laboratory results from patent US7919508B2, “3-piperidinylisochroman-5-ols as dopamine agonists” (Aventis Pharmaceuticals Inc., priority 2004, dated 2011).
Counter-ions that a name gives are not always drawn. Values belong to the compound of their own block, whether it stands above or below them.

Tests used:
D1 receptor = biological target: T1, D1 receptor (Homo sapiens, UniProt P21728); assay: D1 Activation Adenylyl Cyclase Assay (cAMP FlashPlate, D1 transfected CHO cell line); assay type: cell-based; conditions: agonist activity at the D1 receptor, adenylate cyclase assay, D1 transfected CHO cell line; read-out: D1 EC50
T1 construct: expressed in transfected cells; host or cells: D1 transfected CHO cell line
T1 sequence (P21728 whole entry): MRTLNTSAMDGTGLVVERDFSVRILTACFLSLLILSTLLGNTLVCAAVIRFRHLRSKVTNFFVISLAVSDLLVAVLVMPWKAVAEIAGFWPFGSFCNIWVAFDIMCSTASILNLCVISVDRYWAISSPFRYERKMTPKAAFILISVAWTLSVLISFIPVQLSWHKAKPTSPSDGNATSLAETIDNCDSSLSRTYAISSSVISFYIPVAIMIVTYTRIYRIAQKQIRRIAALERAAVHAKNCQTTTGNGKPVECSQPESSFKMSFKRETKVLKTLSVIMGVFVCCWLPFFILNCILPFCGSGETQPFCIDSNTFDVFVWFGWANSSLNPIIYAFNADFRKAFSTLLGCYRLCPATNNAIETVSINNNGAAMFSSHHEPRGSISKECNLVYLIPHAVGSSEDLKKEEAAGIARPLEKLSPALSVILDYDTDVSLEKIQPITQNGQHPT
Method in brief: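 D1-transfected CHO cells (50,000/well) were exposed to compound 1/10 serial dilutions for 8 min at RT; cAMP measured by competitive 125I-cAMP FlashPlate against a standard curve. Response normalised between basal and saturating D1 agonist; EC50 at half-maximal stimulation, plateau reported as % maximal dopamine stimulation.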

[1] = biological target: human dopamine D2Long (D2L) receptors (Homo sapiens, UniProt P14416)
Sequence of human dopamine D2Long (D2L) receptors (P14416 whole entry): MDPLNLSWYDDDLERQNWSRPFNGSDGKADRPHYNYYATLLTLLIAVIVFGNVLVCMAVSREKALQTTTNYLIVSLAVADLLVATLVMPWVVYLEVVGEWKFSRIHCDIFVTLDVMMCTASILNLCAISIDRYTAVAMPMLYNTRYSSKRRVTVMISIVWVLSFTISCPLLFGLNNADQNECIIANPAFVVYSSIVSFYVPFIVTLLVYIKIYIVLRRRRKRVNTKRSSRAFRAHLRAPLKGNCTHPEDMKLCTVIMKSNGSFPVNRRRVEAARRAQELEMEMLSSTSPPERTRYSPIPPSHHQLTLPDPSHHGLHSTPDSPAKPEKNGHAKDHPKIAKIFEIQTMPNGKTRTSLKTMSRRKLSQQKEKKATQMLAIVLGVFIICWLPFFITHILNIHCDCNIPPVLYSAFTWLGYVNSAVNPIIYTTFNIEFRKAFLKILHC

[2] = biological target: T2, human dopamine D1 receptor (Homo sapiens, UniProt P21728); assay: [3H]-SCH-23390 binding to cloned human dopamine D1 receptors (CHO cell membranes); conditions: competitive binding, [3H]-SCH-23390, cloned human D1 in CHO membranes; read-out: D1 affinity Ki
T2 construct: A 1.4 Kb Hind III to Xho I fragment was subcloned into the vector pMMLV; expressed in transfected cells; host or cells: CHO cells, clone CHO-D1M#9 (plasmid pHD1MMLV), membranes
T2 sequence (P21728 whole entry, the tested form may be a part): as the sequence (P21728 whole entry) above

SMILES: Cc1ccc2c(c1O)C[C@@H](C1CCN(Cc3cc(C(F)(F)F)cc(C(F)(F)F)c3)CC1)O[C@H]2CN [Example 75, (1R,3S)-1-Aminomethyl-3-[1-(3,5-bis-trifluoromethyl-benzyl)-piperidin-4-yl]-6-methyl-isochroman-5-ol dihydrochloride]
- EC50 (D1 receptor): 220 nM
- Ki [1]: 120 nM
- Ki [2]: 42 nM

SMILES: Cc1ccc2c(c1O)C[C@@H](C1CCN(Cc3cc(C(F)(F)F)ccc3C(F)(F)F)CC1)O[C@H]2CN [Example 76, (1R,3S)-1-Aminomethyl-3-[1-(2,5-bis-trifluoromethyl-benzyl)-piperidin-4-yl]-6-methyl-isochroman-5-ol dihydrochloride]
- EC50 (D1 receptor): 580 nM
- Ki [1]: 41 nM
- Ki [2]: 92 nM

SMILES: Cc1ccc2c(c1O)C[C@@H](C1CCN(Cc3cc(C(F)(F)F)ccc3Cl)CC1)O[C@H]2CN [Example 77, (1R,3S)-1-Aminomethyl-3-[1-(2-chloro-5-trifluoromethyl-benzyl)-piperidin-4-yl]-6-methyl-isochroman-5-ol dihydrochloride]
- EC50 (D1 receptor): 80 nM
- Ki [1]: 40 nM
- Ki [2]: 36 nM

SMILES: Cc1ccc2c(c1O)C[C@@H](C1CCN(Cc3cc4ccccc4o3)CC1)O[C@H]2CN [Example 85, (1R,3S)-1-Aminomethyl-3-(1-benzofuran-2-ylmethyl-piperidin-4-yl)-6-methyl-isochroman-5-ol dihydrochloride]
- EC50 (D1 receptor): 16 nM
- Ki [1]: 389 nM
- Ki [2]: 25.6 nM

SMILES: Cc1ccc2c(c1O)C[C@@H](C1CCN(Cc3sc4ccccc4c3C)CC1)O[C@H]2CN [Example 86, (1R,3S)-1-Aminomethyl-6-methyl-3-[1-(3-methyl-benzo[b]thiophen-2-ylmethyl)-piperidin-4-yl]-isochroman-5-ol dihydrochloride]
- EC50 (D1 receptor): 77 nM
- Ki [1]: 97.6 nM
- Ki [2]: 39.9 nM

SMILES: Cc1ccc2c(c1O)C[C@@H](C1CCN(Cc3csc4ccccc34)CC1)O[C@H]2CN [Example 87, (1R,3S)-1-Aminomethyl-6-methyl-3-(1-benzo[b]thiophen-3-ylmethyl-piperidin-4-yl)-isochroman-5-ol dihydrochloride]
- EC50 (D1 receptor): 27 nM
- Ki [1]: 23.8 nM
- Ki [2]: 23.9 nM

SMILES: Cc1ccc2c(c1O)C[C@@H](C1CCN(Cc3cc4ccccc4n3C)CC1)O[C@H]2CN [Example 88, (1R,3S)-1-Aminomethyl-6-methyl-3-[1-(1-methyl-1H-indol-2-ylmethyl)-piperidin-4-yl]-isochroman-5-ol dihydrochloride]
- EC50 (D1 receptor): 29 nM
- Ki [1]: 109 nM
- Ki [2]: 66.5 nM

SMILES: CNC[C@@H]1O[C@H](C2CCN(CCc3ccccc3)CC2)Cc2c1ccc(C)c2O [Example 94, (1R,3S)-6-Methyl-1-methylaminomethyl-3-(1-phenethyl-piperidin-4-yl)-isochroman-5-ol dihydrochloride]
- EC50 (D1 receptor): 35 nM
- Ki [1]: 285 nM
- Ki [2]: 113 nM

SMILES: CNC[C@@H]1O[C@H](C2CCN(Cc3ccc(F)cc3)CC2)Cc2c1ccc(C)c2O [Example 95, 1R,3S)-3-[1-(4-Fluoro-benzyl)-piperidin-4-yl]-6-methyl-1-methylaminomethyl-isochroman-5-ol dihydrochloride]
- EC50 (D1 receptor): 250 nM
- Ki [1]: 456 nM
- Ki [2]: 121 nM

SMILES: CNC[C@@H]1O[C@H](C2CCN(Cc3ccc(C(C)C)cc3)CC2)Cc2c1ccc(C)c2O [Example 97, (1R,3S)-3-[1-(4-Isopropyl-benzyl)-piperidin-4-yl]-6-methyl-1-methylaminomethyl-isochroman-5-ol dihydrochloride]
- EC50 (D1 receptor): 66 nM
- Ki [1]: 357 nM
- Ki [2]: 53.1 nM

SMILES: CNC[C@@H]1O[C@H](C2CCN(Cc3ccc(OC)cc3)CC2)Cc2c1ccc(C)c2O [Example 99, (1R,3S)-3-[1-(4-Methoxy-benzyl)-piperidin-4-yl]-6-methyl-1-methylaminomethyl-isochroman-5-ol dihydrochloride]
- EC50 (D1 receptor): 22 nM
- Ki [1]: 307 nM
- Ki [2]: 53.1 nM

SMILES: CNC[C@@H]1O[C@H](C2CCN(Cc3ccc(F)c(F)c3)CC2)Cc2c1ccc(C)c2O [Example 100, (1R,3S)-3-[1-(3,4-Difluoro-benzyl)-piperidin-4-yl]-6-methyl-1-methylaminomethyl-isochroman-5-ol dihydrochloride]
- EC50 (D1 receptor): 60 nM
- Ki [1]: ≥ 100000 nM
- Ki [2]: 43.1 nM

SMILES: CNC[C@@H]1O[C@H](C2CCN(Cc3ccc(C)cc3)CC2)Cc2c1ccc(C)c2O [Example 101, (1R,3S)-6-Methyl-1-methylaminomethyl-3-[1-(4-methyl-benzyl)-piperidin-4-yl]-isochroman-5-ol dihydrochloride]
- EC50 (D1 receptor): 33 nM
- Ki [1]: 322 nM
- Ki [2]: 92.2 nM

SMILES: Cc1ccc2c(c1O)C[C@@H](C1CCN(CCC(C)c3noc4cc(F)ccc34)CC1)O[C@H]2CN (stereo partly drawn) [Example 104, (1R,3S)-1-Aminomethyl-3-{1-[3-(6-fluoro-benzo[d]isoxazol-3-yl)butyl]piperidin-4-yl}-6-methylisochroman-5-ol dihydrochloride]
- EC50 (D1 receptor): 116 nM
- Ki [1]: 122 nM
- Ki [2]: 70 nM

SMILES: Cc1ccc2c(c1O)C[C@@H](C1CCN(CCc3ccccc3)CC1)O[C@H]2CN [Example 106, (1R,3S)-1-Aminomethyl-6-methyl-3-(1-phenethyl-piperidin-4-yl)-isochroman-5-ol dihydrobromide]
- EC50 (D1 receptor): 29 nM
- Ki [1]: 278 nM
- Ki [2]: 45 nM

SMILES: Cc1ccc2c(c1O)C[C@@H](C1CCN(CCc3cccc(Cl)c3)CC1)O[C@H]2CN [Example 107, (1R,3S)-1-Aminomethyl-3-{1-[2-(3-chloro-phenyl)-ethyl]-piperidin-4-yl}-6-methyl-isochroman-5-ol dihydrobromide]
- EC50 (D1 receptor): 140 nM
- Ki [1]: ≥ 10000 nM
- Ki [2]: 926 nM

SMILES: Cc1ccc2c(c1O)C[C@@H](C1CCN(C/C=C/c3ccccc3)CC1)O[C@H]2CN [Example 109, (1R,3S)-1-Aminomethyl-6-methyl-3-[1-(3-phenyl-allyl)-piperidin-4-yl]-isochroman-5-ol dihydrobromide]
- EC50 (D1 receptor): 102 nM
- Ki [1]: 212 nM
- Ki [2]: 108 nM

SMILES: Cc1ccc2c(c1O)C[C@@H](C1CCN(C(=O)OC(C)C)CC1)O[C@H]2CN [Example 111, 4-((1R,3S)-1-Aminomethyl-5-hydroxy-6-methyl-isochroman-3-yl)-piperidine-1-carboxylic acid isopropyl ester hydrochloride]
- EC50 (D1 receptor): 49 nM
- Ki [1]: 794 nM
- Ki [2]: 165 nM

Stronger by EC50 (D1 receptor), values ahead:

- EC50 (D1 receptor): 11 nM
- Ki [1]: 288 nM
- Ki [2]: 34 nM
SMILES: Cc1cccc(CN2CCC([C@@H]3Cc4c(ccc(C)c4O)[C@H](CN)O3)CC2)c1 [Example 65, (1R,3S)-1-Aminomethyl-6-methyl-3-[1-(3-methyl-benzyl)-piperidin-4-yl]-isochroman-5-ol dihydrochloride]

- EC50 (D1 receptor): 15 nM
- Ki [1]: 431 nM
- Ki [2]: 63.5 nM
SMILES: Cc1ccc2c(c1O)C[C@@H](C1CCN(Cc3cccc(C(F)(F)F)c3)CC1)O[C@H]2CN [Example 73, (1R,3S)-1-Aminomethyl-6-methyl-3-[1-(3-trifluoromethyl-benzyl)-piperidin-4-yl]-isochroman-5-ol dihydrochloride]

- EC50 (D1 receptor): 6 nM
- Ki [1]: 655 nM
- Ki [2]: 57 nM
SMILES: Cc1ccc2c(c1O)C[C@@H](C1CCN(Cc3ccc(C(F)(F)F)cc3)CC1)O[C@H]2CN [Example 74, (1R,3S)-1-Aminomethyl-6-methyl-3-[1-(4-trifluoromethyl-benzyl)-piperidin-4-yl]-isochroman-5-ol dihydrochloride]

- EC50 (D1 receptor): 2 nM
- Ki [1]: 197 nM
- Ki [2]: 14 nM
SMILES: Cc1ccc2c(c1O)C[C@@H](C1CCN(Cc3ccc(Cl)c(C(F)(F)F)c3)CC1)O[C@H]2CN [Example 78, (1R,3S)-1-Aminomethyl-3-[1-(4-chloro-3-trifluoromethyl-benzyl)-piperidin-4-yl]-6-methyl-isochroman-5-ol dihydrochloride]

- EC50 (D1 receptor): 8 nM
- Ki [1]: 199 nM
- Ki [2]: 18.9 nM
SMILES: Cc1ccc2c(c1O)C[C@@H](C1CCN(Cc3c[nH]c4ccccc34)CC1)O[C@H]2CN [Example 89, (1R,3S)-1-Aminomethyl-3-[1-(1H-indol-3-ylmethyl)-piperidin-4-yl]-6-methyl-isochroman-5-ol dihydrochloride]

- EC50 (D1 receptor): 9 nM
- Ki [1]: 2.4 nM
- Ki [2]: 42.3 nM
SMILES: Cc1ccc2c(c1O)C[C@@H](C1CCN(Cc3cn(C)c4ccccc34)CC1)O[C@H]2CN [Example 90, (1R,3S)-1-Aminomethyl-6-methyl-3-[1-(1-methyl-1H-indol-3-ylmethyl)-piperidin-4-yl]-isochroman-5-ol trihydrochloride]

- EC50 (D1 receptor): 12 nM
- Ki [1]: 43.4 nM
- Ki [2]: 40.7 nM
SMILES: Cc1ccc2c(c1O)C[C@@H](C1CCN(Cc3cn(Cc4ccccc4)c4ccccc34)CC1)O[C@H]2CN [Example 91, (1R,3S)-1-Aminomethyl-3-[1-(1-benzyl-1H-indol-3-ylmethyl)-piperidin-4-yl]-6-methyl-isochroman-5-ol dihydrochloride]

- EC50 (D1 receptor): 0.98 nM
- Ki [1]: 93.4 nM
- Ki [2]: 29.2 nM
SMILES: Cc1ccc2c(c1O)C[C@@H](C1CCN(Cc3nc4ccccc4n3C)CC1)O[C@H]2CN [Example 92, (1R,3S)-1-Aminomethyl-6-methyl-3-[1-(1-methyl-1H-benzoimidazol-2-ylmethyl)-piperidin-4-yl]-isochroman-5-ol trihydrochloride]

- EC50 (D1 receptor): 15 nM
- Ki [1]: 239 nM
- Ki [2]: 60.3 nM
SMILES: CNC[C@@H]1O[C@H](C2CCN(Cc3ccc(-c4ccccc4)cc3)CC2)Cc2c1ccc(C)c2O [Example 98, (1R,3S)-3-(1-Biphenyl-4-ylmethyl-piperidin-4-yl)-6-methyl-1-methylaminomethyl-isochroman-5-ol dihydrochloride]
